The values below come from publication PMC9022420 (Scientific Reports, 2022).

The nature of data set [1]: UV-Vis absorption and emission spectra of flavins in DMSO. Format: physicochemical. The note with it: measured in DMSO.
Data set [2] in a line: Singlet oxygen quantum yield determination. Type of data set: physicochemical. The note with it: in MeCN; for φΔ singlet oxygen quantum yield: calculated using Ru(bpy)3^2+ as the reference.
A short description of data set [3]: Flavin photostability in PBS under white LED irradiation. Format: physicochemical. The note with it: 100 µM in PBS, white LED 1 × 10^5 lx, 30 min irradiation. The source says:
After successful synthesis and initial characterisation, we monitored the photostability of the compounds in PBS (1x, pH 7.4) which was used for PDI assays as distilled or ultrapure water destabilises bacterial cells and coronaviruses through osmotic pressures[37],[38], thereby augmenting inactivation results. […] This yields lumichrome as the major degradation product which can only act as a PS under UV-irradiation[40]. […] However, it appears that guanidino substitution in our case improves the photostability.
Figure S4: (A) Flavin photostability (100 µM) in PBS (0.1% DMSO) irradiated with 1x105 lx (35 mW/cm2) where A
= Abs at 450 nm and A0 = Abs at 450 nm at 0 min.
photostability. Experiments were performed using a quartz cuvette and measured using an Agilent Cary 300
(1 picture or pasted object on this page, not shown here)

Data set [4] concerns murine hepatitis virus A59 strain (MHV-A59). Nature of the data set: Photodynamic inactivation of MHV-A59 (TCID50 assay in 17Cl-1 cells). Type of data set: cell-based. How it is done:
The efficacy of the flavins were enumerated utilizing modified methods from ISO 18,184 and Leibowitz et al.[56] […] 100 µM working stock solutions were then created by diluting each DMSO solution into PBS. To control for the effect of DMSO on MHV-A59, DMSO was diluted into PBS at the same concentration. A white light apparatus was set up to cover a 4 × 5 (row x column) area of a 96-well plate with the same level of light intensity (1 × 10^5 lx). The stock solutions were then diluted in replicates of four to a total of 180 µl in PBS at 1, 5, and 10 µM concentrations for each sample. Virus stocks of MHV-A59 were thawed on ice prior to use. 20 µl of MHV-A59 stock (1.4 × 10^9 PFU/ml) was then mixed into each well, and the 4 × 5 well matrix was treated with the light or incubated in the dark at room temperature for a specified time (5, 10, or 15 min).
After treatment, the samples were mixed into 320 µl of Gibco Difco™ Beef Extract (1.5% w/v beef extract in ddH2O; Life Technologies) and rolled for 15 min to chelate any free ions in the solution. The samples then were serially diluted (10^0–10^–7) in infectivity media (Dulbecco’s modified Eagle’s medium low glucose 1 g/L (DMEM, Life Technologies) supplemented with 2.5% fetal bovine serum (Merck), 3% tryptose phosphate broth (Merck), 1 × non-essential amino acids (Gibco), 1 × antibiotic–antimycotic (Thermo Fisher Scientific) and 1 × L-Glutamine (Gibco]) and added in triplicate to 17Cl-1 cell plates. For each sample or control there were 4 replicate treatments (in light or dark); each treatment replicate was plated in triplicate. Infected 17Cl-1 plates were incubated at 37 °C in a 5% CO2 atmosphere for 24 h. Plates were scored for cytopathic effect (CPE) by microscopy and viral titres were determined by the Reed and Muench 50% tissue culture infectious dose (TCID50) end point method. Outliers were removed from the four replicates using an outlier test. The full protocol was repeated in triplicate on different days to account for any variability in the assay.

The test system of data set [5] is ssRNA (EGFP-encoding mRNA, ~ 1 k nt). Nature of the data set: ssRNA photocleavage, agarose gel electrophoresis. Format: biochemical. The note with it: 10 µM flavin, 15 min white LED, PBS 0.1% DMSO. How it is done:
A 20 µL aliquot was taken after 15 min of white LED irradiation (1 × 10^5 lx). Prior to loading, 2 µL of 6X Orange-G loading dye in glycerol were added to the aliquot and mixed vigorously. The gel was electrophoresed at 80 V for 35 min with 1% agarose gels in 1X Tris–acetate-EDTA (TAE) buffer. Gels were then imaged in a Syngene G:BOX Gel Documentation System and band % quantification was performed using ImageJ Gel Analyzer.

Data set [6] relates to WI-38 cells. Description: 24 h MTS cytotoxicity assay, WI-38. Format: cell-based. The note with it: Homo sapiens, 24 h incubation, dark. The procedure:
(§1) The MTS tetrazolium compound is reduced by cells into a coloured formazan product which is soluble in cell culture media. It can be detected colorimetrically between 450 and 540 nm with the measured absorbance directly proportional to the amount of metabolically active cells in culture. Cells were seeded into clear 96-well plates containing 10,000 cells/well in 100 µL complete growth medium and cultured for 24 h at 37 °C and 5% CO2. […] After further 24 h incubation at 37 °C and 5% CO2, 20 µL of CelTiter 96® AQueous One Solution (Promega) was added into each well and incubated at 37 °C, 5% CO2 for 1–4 h, according to the manufacturer’s instruction. The absorbance of each well was measured at 490 nm using a plate reader (Spark, Tecan). Control measurements included negative control of cells with DMEM, cells with DMEM containing 0.1% DMSO, cell-free culture media (blank) and cell-free sample dilutions in culture media to evaluate potential sample interferences with MTS assay. All experiments were conducted in biological triplicates. The percentage cell viability was calculated according to Eq. (1):1 Cell viability(%)=100×Absorbanceoftreatedcells-Absorbanceofblank/Absorbanceofcontrol-Absorbanceofblank

The next data set relates to 17Cl-1 cells. Nature of the data set: 24 h MTS cytotoxicity assay, 17Cl-1. The note with it: Mus musculus, 24 h incubation, dark. Format: cell-based, murine. The procedure:
as §1
A general note: Formazan colour is commonly taken as a measure of viable cells.

Data set [7] relates to WI-38 cells. Nature of the data set: Light-induced toxicity towards WI-38 cells (MTS). The note with it: 10 μM flavin, 15 min irradiation 1 × 10^5 lx. Type of data set: cell-based, human. How it is done:
An adapted method reported by Maisch et al. was used to conduct phototoxicity studies on human lung fibroblasts, WI-38[28]. Cells were seeded into 96-well plates containing 10,000 cells/well in 100 µL complete growth medium and cultured for 24 h at 37 °C and 5% CO2. […] The resulting mixtures were then incubated in the dark for 5 min and then either illuminated with 1 × 10^5 lx for 5, 10 or 15 min, or incubated further in the dark for 15 min (dark control). After irradiation, the flavin solutions were removed and 100 μL of DMEM with 10% FBS and without phenol red was added to each well and incubated over night at 37 °C and 5% CO2. Subsequently, 20 µL of MTS reagent was added into each well and incubated at 37 °C and 5% CO2 for 1–4 h and the absorbance of each well was measured at 490 nm using a plate reader. Control measurements included negative control untreated cells with light and in the dark containing 0.1% DMSO and cells treated with flavins for 15 min in the dark. All experiments were conducted in biological triplicates. The percentage cell viability was calculated according to Eq. (1).

Setting [8] is: 1 µM flavin, 10 min irradiation (21.0 J/cm^2).
[9] abbreviates: 5 µM flavin, 10 min irradiation.
Setting [10] is: 10 µM flavin, 10 min irradiation.

Where only a bound is given, the exact number is not on record here.

One may read the IC50 as the concentration that inhibits the measured activity by half. With `CCCCCCCCn1c(=O)nc2n(CCNC(=N)N)c3cc(C)c(C)cc3nc-2c1=O` [Flavin F2], in data set [1], the “λ1 (S0 → S1 absorption band)” value worked out at 446 nm, the “λ2 (S0 → S2 absorption band)” value came to 350 nm and the “λem (emission wavelength)” value turned out to be 512 nm. Moreover, in data set [2], the “ФΔ singlet oxygen quantum yield” value came out at 55% and the “φΔ singlet oxygen quantum yield” value is reported as 0.55 ± 0.10. The photodecomposition / degradation result in data set [3] was “approximately 10%”. Further, the “MHV-A59 log10 reduction in viral titre” value in data set [4] (setting [8]) is reported as 2.1 log10. For the same compound, in data set [4] (setting [9]), the “MHV-A59 log10 reduction in viral titre” value came to 3.9 log10 and the “MHV-A59 viral load reduction” value was above 99.9%. The “MHV-A59 log10 reduction in viral titre” value in data set [4] (setting [10]) is listed as 3.8 log10. Moreover, the “% cleaved ssRNA” value in data set [5] was determined as 46%. In addition, the half-maximal inhibitory concentration (IC50) in the data set with WI-38 cells [6] is above 100 µM. For the same compound, the IC50 with 17Cl-1 cells is above 100 µM. Moreover, the “reduction in cell viability (light-induced toxicity)” value (from here on “reduction in cell viability”) in the data set with WI-38 cells [7] was ~ 75%.

In the case of `CCCCCCCCn1c(=O)nc2n(CCN)c3cc(C)c(C)cc3nc-2c1=O` [Flavin F1], the “λ1 (S0 → S1 absorption band)” value in data set [1] is 444 nm. Also, in data set [1], the “λ2 (S0 → S2 absorption band)” value is given as 349 nm. The “λem (emission wavelength)” value in data set [1] is 507 nm. For the same compound, the “φΔ singlet oxygen quantum yield” value in data set [2] was 0.49 ± 0.12. Besides, the photodecomposition / degradation result in data set [3] is “around 40%”. The “MHV-A59 log10 reduction in viral titre” value in data set [4] (setting [9]) amounted to 1.7 log10; in data set [4] (10 µM flavin, 5 min irradiation (10.5 J/cm^2)), 1.2 log10; in data set [4] (setting [10]) it was 2.1 log10; in data set [4] (10 µM flavin, 15 min irradiation (31.5 J/cm^2)), 2.2 log10. For the same compound, the “% cleaved ssRNA” value in data set [5] was 12%. The figures for the IC50 with WI-38 cells [6] and in the data set with 17Cl-1 cells were 96.1 µM and 70.2 µM, respectively. Further, the “reduction in cell viability” value with WI-38 cells [7] is recorded as “no decrease in cell viability”.

Consider `CCCCCCCCn1c(=O)nc2n(CCNC(=N)N)c3cc(Br)c(Br)cc3nc-2c1=O` [Flavin F4], for which, in data set [1], the “λ1 (S0 → S1 absorption band)” value is 444 nm, the “λ2 (S0 → S2 absorption band)” value worked out at 340 nm and the “λem (emission wavelength)” value worked out at 513 nm. Further, in data set [2], the “ФΔ singlet oxygen quantum yield” value came out at 62% and the “φΔ singlet oxygen quantum yield” value is 0.62 ± 0.10. The photodecomposition / degradation in data set [3] is on record as around 30%. For the same compound, in data set [4] (setting [8]), the “MHV-A59 log10 reduction in viral titre” value was 3.4 log10. Moreover, the “MHV-A59 viral load reduction” value in data set [4] (setting [9]) was above 99.99%. Also, the “viral inactivation, log10 reduction” value in data set [4] (15 min irradiation at 1 μM) is recorded as above 3 log10. The “% cleaved ssRNA” value in data set [5] was 42%. The compound also came in with an IC50 in the data set with WI-38 cells [6] above 100 µM. In the data set with 17Cl-1 cells, this compound returned an IC50 of 50.9 µM. Also, the “reduction in cell viability” value in the data set with WI-38 cells [7] is on record as ~ 20%.

For `CCCCCCCCn1c(=O)nc2n(CCN)c3cc(Br)c(Br)cc3nc-2c1=O` [Flavin F3], in data set [1], the “λ1 (S0 → S1 absorption band)” value worked out at 443 nm, the “λ2 (S0 → S2 absorption band)” value was 336 nm and the “λem (emission wavelength)” value worked out at 508 nm. Besides, in data set [2], the “ФΔ singlet oxygen quantum yield” value is recorded as 85% and the “φΔ singlet oxygen quantum yield” value is 0.85 ± 0.09. The photodecomposition / degradation in data set [3] is around 60%. Moreover, in data set [4] (setting [8]), the “MHV-A59 log10 reduction in viral titre” value is 2.1 log10. Moreover, in data set [4] (setting [9]), the “MHV-A59 log10 reduction in viral titre” value came out at 4.1 log10 and the “MHV-A59 viral load reduction” value is reported as above 99.99%. Moreover, the “MHV-A59 log10 reduction in viral titre” value in data set [4] (setting [10]) came out at 4.8 log10. Besides, in data set [5], the “% cleaved ssRNA” value came to 35%. Besides, the IC50 in the data set with WI-38 cells [6] worked out at 30.9 µM. In addition, in the data set with 17Cl-1 cells, the IC50 worked out at 3.66 µM. For the same compound, the “reduction in cell viability” value in the data set on WI-38 cells [7] is on record as “no decrease in cell viability”.
